Consider 27 compounds from patent US11753397B2, “Cereblon binders for the degradation of ikaros” (C4 Therapeutics, Inc., priority 2018, dated 2023).

Where a name gives a salt, the structure may show the parent alone.

For the assay, the system named is NCIH929.1 cells. Put plainly: Cell viability assay (CellTiter-Glo 2.0, ATP quantification). Type of assay: cell-based. The settings on record: NCIH929.1 cell viability, CellTiter-Glo 2.0, 96 hr incubation, top concentration 1 μM. In outline:
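Read-out is CellTiter-Glo 2.0 luminescence (ATP), after 96 h compound exposure at 37 °C, with a day-0 plate giving the CT0 baseline. Duplicate 10-point half-log titration from 1 μM applied to 750 cells/well in RPMI, 10% FBS, 0.05 mM 2-mercaptoethanol.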
(ATP-based viability assays read luminescence as a measure of living cells.)
Take `O=C1CCC(N2C(=O)c3cccc(NCc4cnn(C5CCN(C(=O)c6cc(C7CC7)on6)CC5)c4)c3C2=O)C(=O)N1` (stereo not drawn) [Compound 39, 4-(((1-(1-(5-cyclopropylisoxazole-3-carbonyl)piperidin-4-yl)-1H-pyrazol-4-yl)methyl)amino)-2-(2,6-dioxopiperidin-3-yl)isoindoline-1,3-dione]: the GI50 is less than 100 nM.

In the case of `O=C1CCC(N2C(=O)c3cccc(NCc4cnn(C5CCN(C(=O)C6CCCOC6)CC5)c4)c3C2=O)C(=O)N1` (stereo not drawn) [Compound 42, 2-(2,6-dioxopiperidin-3-yl)-4-(((1-(1-(tetrahydro-2H-pyran-3-carbonyl)piperidin-4-yl)-1H-pyrazol-4-yl)methyl)amino)isoindoline-1,3-dione], the GI50 is less than 100 nM.

The compound `O=C1CCC(N2C(=O)c3cccc(NCc4cnn(C5CCN(C(=O)C6CCN(C(=O)c7ccccc7)CC6)CC5)c4)c3C2=O)C(=O)N1` (stereo not drawn) [Compound 101, 4-(((1-(1-(1-benzoylpiperidine-4-carbonyl)piperidin-4-yl)-1H-pyrazol-4-yl)methyl)amino)-2-(2,6-dioxopiperidin-3-yl)isoindoline-1,3-dione] came in with a GI50 of less than 100 nM.

For the compound `O=C1CCC(N2C(=O)c3cccc(NCc4cnn(C5CCN(C6CC6)CC5)c4)c3C2=O)C(=O)N1` (stereo not drawn) [Compound 134, 4-(((1-(1-cyclopropylpiperidin-4-yl)-1H-pyrazol-4-yl)methyl)amino)-2-(2,6-dioxopiperidin-3-yl)isoindoline-1,3-dione], the GI50 is less than 100 nM.

For `O=C1CCC(N2C(=O)c3cccc(NCc4cnn(C5CCN(C(=O)C6CC(F)(F)C6)CC5)c4)c3C2=O)C(=O)N1` (stereo not drawn) [Compound 29, 4-(((1-(1-(3,3-difluorocyclobutane-1-carbonyl)piperidin-4-yl)-1H-pyrazol-4-yl)methyl)amino)-2-(2,6-dioxopiperidin-3-yl)isoindoline-1,3-dione], the GI50 was less than 100 nM.

With `CN(C)CCC(Nc1cccc2c1C(=O)N(C1CCC(=O)NC1=O)C2=O)c1cnn(C2CCN(C(=O)OC(C)(C)C)CC2)c1` (stereo not drawn) [Compound 187, tert-Butyl 4-(4-(3-(dimethylamino)-1-((2-(2,6-dioxopiperidin-3-yl)-1,3-dioxoisoindolin-4-yl)amino)propyl)-1H-pyrazol-1-yl)piperidine-1-carboxylate], the GI50 was more than 100 nM.

`CC(C)(C)OC(=O)N1CCC(n2ncc(CNc3cccc4c3C(=O)N(C3CCC(=O)NC3=O)C4=O)c2CC(=O)C2CC2)CC1` (stereo not drawn) [Compound 189, tert-Butyl 4-[5-(2-cyclopropyl-2-oxo-ethyl)-4-[[[2-(2,6-dioxo-3-piperidyl)-1,3-dioxo-isoindolin-4-yl]amino]methyl]pyrazol-1-yl]piperidine-1-carboxylate] had a GI50 of less than 100 nM.

Take `O=C1CCC(N2C(=O)c3cccc(NCc4cnn(C5CCN(C(=O)C6(C#CC7CC7)CCC6)CC5)c4)c3C2=O)C(=O)N1` (stereo not drawn) [Compound 205, 4-({1-[1-(1-Cyclopropylethynyl-cyclobutanecarbonyl)-piperidin-4-yl]-1H-pyrazol-4-yl-methyl}-amino)-2-(2,6-dioxo-piperidin-3-yl)-isoindole-1,3-dione]: the GI50 is less than 100 nM.

In turn, `Cn1cc(C(=O)N2CCC(n3cc(CNc4cccc5c4C(=O)N(C4CCC(=O)NC4=O)C5=O)cn3)CC2)cn1` (stereo not drawn) [Compound 34, 2-(2,6-dioxopiperidin-3-yl)-4-(((1-(1-(1-methyl-1H-pyrazole-4-carbonyl)piperidin-4-yl)-1H-pyrazol-4-yl)methyl)amino)isoindoline-1,3-dione] gave a GI50 of less than 100 nM.

Consider `O=C1CCC(N2C(=O)c3cccc(NCc4cnn([C@H]5CC[C@H](C(=O)N6CCCCC6)CC5)c4)c3C2=O)C(=O)N1` (stereo partly drawn) [Compound 170, 2-(2,6-Dioxopiperidin-3-yl)-4-(((1-((1r,4r)-4-(piperidine-1-carbonyl)cyclohexyl)-1H-pyrazol-4-yl)methyl)amino)isoindoline-1,3-dione], for which the GI50 is less than 100 nM.

Compound `COCC(=O)N1CCC(C(=O)N2CCC(n3cc(CNc4cccc5c4C(=O)N(C4CCC(=O)NC4=O)C5=O)cn3)CC2)CC1` (stereo not drawn) [Compound 111, 2-(2,6-dioxopiperidin-3-yl)-4-(((1-(1-(1-(2-methoxyacetyl)piperidine-4-carbonyl)piperidin-4-yl)-1H-pyrazol-4-yl)methyl)amino)isoindoline-1,3-dione] yielded a GI50 of less than 100 nM.

`O=C1CCC(N2C(=O)c3cccc(NCc4cnn(C5CCN(C(=O)C6CCC6)CC5)c4)c3C2=O)C(=O)N1` (stereo not drawn) [Compound 14, 4-(((1-(1-(cyclobutanecarbonyl)piperidin-4-yl)-1H-pyrazol-4-yl)methyl)amino)-2-(2,6-dioxopiperidin-3-yl)isoindoline-1,3-dione] displayed a GI50 of less than 100 nM.

The compound `CC(C)(C)n1cc(CNc2cccc3c2C(=O)N(C2CCC(=O)NC2=O)C3=O)cn1` (stereo not drawn) [Compound 144, 4-(((1-(tert-butyl)-1H-pyrazol-4-yl)methyl)amino)-2-(2,6-dioxopiperidin-3-yl)isoindoline-1,3-dione] yielded a GI50 of less than 100 nM.

In turn, `NC1(C(=O)N2CCC(n3cc(CNc4cccc5c4C(=O)N(C4CCC(=O)NC4=O)C5=O)cn3)CC2)CCC1` (stereo not drawn) [Compound 175, 4-[[1-[1-(1-aminocyclobutanecarbonyl)-4-piperidyl]pyrazol-4-yl]methylamino]-2-(2,6-dioxo-3-piperidyl)isoindoline-1,3-dione hydrochloride] registered a concentration for 50% growth inhibition (GI50) of less than 100 nM.

The compound `O=C1CCC(N2C(=O)c3cccc(NCc4cnn(C5CCN(C(=O)C6(c7ccc(F)cc7)CCCC6)CC5)c4)c3C2=O)C(=O)N1` (stereo not drawn) [Compound 77, 2-(2,6-dioxopiperidin-3-yl)-4-(((1-(1-(1-(4-fluorophenyl)cyclopentane-1-carbonyl)piperidin-4-yl)-1H-pyrazol-4-yl)methyl)amino)isoindoline-1,3-dione] yielded a GI50 of less than 1 nM.

For the compound `O=C1CCC(N2C(=O)c3cccc(NCc4cnn(C5CCN(C(=O)Cc6cnn(-c7ccccc7)c6)CC5)c4)c3C2=O)C(=O)N1` (stereo not drawn) [Compound 120, 2-(2,6-dioxopiperidin-3-yl)-4-(((1-(1-(2-(1-phenyl-1H-pyrazol-4-yl)acetyl)piperidin-4-yl)-1H-pyrazol-4-yl)methyl)amino)isoindoline-1,3-dione], the GI50 was less than 100 nM.

The compound `O=C1CCC(N2C(=O)c3cccc(NCc4cnn(C5CCN(C(=O)C6CCN(C(=O)C7CCOCC7)CC6)CC5)c4)c3C2=O)C(=O)N1` (stereo not drawn) [Compound 109, 2-(2,6-dioxopiperidin-3-yl)-4-(((1-(1-(1-(tetrahydro-2H-pyran-4-carbonyl)piperidine-4-carbonyl)piperidin-4-yl)-1H-pyrazol-4-yl)methyl)amino)isoindoline-1,3-dione] showed a concentration for 50% growth inhibition (GI50) of less than 100 nM.

`O=C1CCC(N2C(=O)c3cccc(NCc4cnn(C5CCN(C(=O)C6(O)CCC6)CC5)c4)c3C2=O)C(=O)N1` (stereo not drawn) [Compound 84, 2-(2,6-dioxopiperidin-3-yl)-4-(((1-(1-(1-hydroxycyclobutane-1-carbonyl)piperidin-4-yl)-1H-pyrazol-4-yl)methyl)amino)isoindoline-1,3-dione]: the GI50 was less than 100 nM.

Take `O=C1CCC(N2C(=O)c3cccc(NCc4cnn(C5CCN(C(=O)CC6CCC(c7ccccc7)CC6)CC5)c4)c3C2=O)C(=O)N1` (stereo not drawn) [Compound 117, 2-(2,6-dioxopiperidin-3-yl)-4-(((1-(1-(2-(4-phenylcyclohexyl)acetyl)piperidin-4-yl)-1H-pyrazol-4-yl)methyl)amino)isoindoline-1,3-dione]: the 50% growth inhibitory concentration (GI50) was less than 100 nM.

In the case of `CN(C(=O)N1CCC(n2cc(CNc3cccc4c3C(=O)N(C3CCC(=O)NC3=O)C4=O)cn2)CC1)C(C)(C)C` (stereo not drawn) [Compound 178, N-(tert-Butyl)-4-(4-(((2-(2,6-dioxopiperidin-3-yl)-1,3-dioxoisoindolin-4-yl)amino)methyl)-1H-pyrazol-1-yl)-N-methylpiperidine-1-carboxamide], the GI50 is less than 100 nM.

`N#CCC(=O)N1CCC(n2cc(CNc3cccc4c3C(=O)N(C3CCC(=O)NC3=O)C4=O)cn2)CC1` (stereo not drawn) [Compound 19, 3-(4-(4-(((2-(2,6-dioxopiperidin-3-yl)-1,3-dioxoisoindolin-4-yl)amino)methyl)-1H-pyrazol-1-yl)piperidin-1-yl)-3-oxopropanenitrile] had a GI50 of less than 100 nM.

For `CC(C)Cn1cc(CNc2cccc3c2C(=O)N(C2CCC(=O)NC2=O)C3=O)cn1` (stereo not drawn) [Compound 143, 2-(2,6-dioxopiperidin-3-yl)-4-(((1-isobutyl-1H-pyrazol-4-yl)methyl)amino)isoindoline-1,3-dione], the GI50 is more than 100 nM.

`CC(C)(C)OC(=O)CN1CC(n2cc(CNc3cccc4c3C(=O)N(C3CCC(=O)NC3=O)C4=O)cn2)C1` (stereo not drawn) [Compound 184, tert-butyl 2-(3-(4-(((2-(2,6-Dioxopiperidin-3-yl)-1,3-dioxoisoindolin-4-yl)amino)methyl)-1H-pyrazol-1-yl)azetidin-1-yl)acetate]: the GI50 was less than 100 nM.

For `O=C1CCC(N2C(=O)c3cccc(NCc4cnn(C5CCN(C(=O)Cc6ccc(F)cc6)CC5)c4)c3C2=O)C(=O)N1` (stereo not drawn) [Compound 25, 2-(2,6-dioxopiperidin-3-yl)-4-(((1-(1-(2-(4-fluorophenyl)acetyl)piperidin-4-yl)-1H-pyrazol-4-yl)methyl)amino)isoindoline-1,3-dione], the GI50 is less than 100 nM.

Turning to `COCCC(=O)N1CCC(n2cc(CNc3cccc4c3C(=O)N(C3CCC(=O)NC3=O)C4=O)cn2)CC1` (stereo not drawn) [Compound 6, 2-(2,6-dioxopiperidin-3-yl)-4-(((1-(1-(3-methoxypropanyl)piperidin-4-yl)-1H-pyrazol-4-yl)methyl)amino)isoindoline-1,3-dione], the concentration for 50% growth inhibition (GI50) is less than 100 nM.

With `CC(C)CC(=O)N1CCC(n2cc(CNc3cccc4c3C(=O)N(C3CCC(=O)NC3=O)C4=O)cn2)CC1` (stereo not drawn) [Compound 49, 2-(2,6-dioxopiperidin-3-yl)-4-(((1-(1-(3-methylbutanoyl)piperidin-4-yl)-1H-pyrazol-4-yl)methyl)amino)isoindoline-1,3-dione], the GI50 is less than 100 nM.

For `CCC(C)C(=O)N1CCC(n2cc(CNc3cccc4c3C(=O)N(C3CCC(=O)NC3=O)C4=O)cn2)CC1` (stereo not drawn) [Compound 13, 2-(2,6-dioxopiperidin-3-yl)-4-(((1-(1-(2-methylbutanoyl)piperidin-4-yl)-1H-pyrazol-4-yl)methyl)amio)isoindoline-1,3-dione], the concentration for 50% growth inhibition (GI50) is less than 100 nM.

Broadly, the GI50 is the concentration at which growth is held to half of that of the control. Low values mean greater sensitivity of the cells, high ones lower sensitivity of the cells.
